Measured values as given in paper PMC7206119, “RIP1 inhibition blocks inflammatory diseases but not tumor growth or metastases” (Cell Death and Differentiation, 2019).

What was measured:
Assay in all cases: biochemical
Set-up in all cases: DiscoverX kinase panel, active-site competition binding (KINOMEscan type), percent of control at one concentration
Details in all cases: competition binding, percent of control
SRPK2 = SRPK2 (Homo sapiens, UniProt P78362)
MST1 = target: T1, MST1 (Homo sapiens, UniProt Q13043)
T1 construct: gene STK4

TRKB = target: T2, TRKB (Homo sapiens, UniProt Q16620)
T2 construct: gene NTRK2

[1] = target: T3, ABL1(T315I)-nonphosphorylated (Homo sapiens, UniProt P00519, T315I)
T3 construct: nonphosphorylated

PRKCH = PRKCH (Homo sapiens, UniProt P24723)
FLT3 = FLT3 (Homo sapiens, UniProt P36888)
PIK3CA(I800L) = PIK3CA(I800L) (Homo sapiens, UniProt P42336, I800L)
TNIK = TNIK (Homo sapiens, UniProt Q9UKE5)
MYLK = MYLK (Homo sapiens, UniProt Q15746)
CSNK2A1 = CSNK2A1 (Homo sapiens, UniProt P68400)
RIPK4 = RIPK4 (Homo sapiens, UniProt P57078)
GCN2(Kin.Dom.2,S808G) = target: T4, GCN2(Kin.Dom.2,S808G) (Homo sapiens, UniProt Q9P2K8, S808G)
T4 construct: gene EIF2AK4; Kin.Dom.2

FGFR3(G697C) = FGFR3(G697C) (Homo sapiens, UniProt P22607, G697C)
MAK = MAK (Homo sapiens, UniProt P20794)
PCTK3 = target: T5, PCTK3 (Homo sapiens, UniProt Q07002)
T5 construct: gene CDK18

MERTK = MERTK (Homo sapiens, UniProt Q12866)
HPK1 = target: T6, HPK1 (Homo sapiens, UniProt Q92918)
T6 construct: gene MAP4K1

PIK4CB = target: T7, PIK4CB (Homo sapiens, UniProt Q9UBF8)
T7 construct: gene PI4KB

MEK5 = target: T8, MEK5 (Homo sapiens, UniProt Q13163)
T8 construct: gene MAP2K5

HUNK = HUNK (Homo sapiens, UniProt P57058)
AKT2 = AKT2 (Homo sapiens, UniProt P31751)

Sequence of MERTK (Q12866 whole entry): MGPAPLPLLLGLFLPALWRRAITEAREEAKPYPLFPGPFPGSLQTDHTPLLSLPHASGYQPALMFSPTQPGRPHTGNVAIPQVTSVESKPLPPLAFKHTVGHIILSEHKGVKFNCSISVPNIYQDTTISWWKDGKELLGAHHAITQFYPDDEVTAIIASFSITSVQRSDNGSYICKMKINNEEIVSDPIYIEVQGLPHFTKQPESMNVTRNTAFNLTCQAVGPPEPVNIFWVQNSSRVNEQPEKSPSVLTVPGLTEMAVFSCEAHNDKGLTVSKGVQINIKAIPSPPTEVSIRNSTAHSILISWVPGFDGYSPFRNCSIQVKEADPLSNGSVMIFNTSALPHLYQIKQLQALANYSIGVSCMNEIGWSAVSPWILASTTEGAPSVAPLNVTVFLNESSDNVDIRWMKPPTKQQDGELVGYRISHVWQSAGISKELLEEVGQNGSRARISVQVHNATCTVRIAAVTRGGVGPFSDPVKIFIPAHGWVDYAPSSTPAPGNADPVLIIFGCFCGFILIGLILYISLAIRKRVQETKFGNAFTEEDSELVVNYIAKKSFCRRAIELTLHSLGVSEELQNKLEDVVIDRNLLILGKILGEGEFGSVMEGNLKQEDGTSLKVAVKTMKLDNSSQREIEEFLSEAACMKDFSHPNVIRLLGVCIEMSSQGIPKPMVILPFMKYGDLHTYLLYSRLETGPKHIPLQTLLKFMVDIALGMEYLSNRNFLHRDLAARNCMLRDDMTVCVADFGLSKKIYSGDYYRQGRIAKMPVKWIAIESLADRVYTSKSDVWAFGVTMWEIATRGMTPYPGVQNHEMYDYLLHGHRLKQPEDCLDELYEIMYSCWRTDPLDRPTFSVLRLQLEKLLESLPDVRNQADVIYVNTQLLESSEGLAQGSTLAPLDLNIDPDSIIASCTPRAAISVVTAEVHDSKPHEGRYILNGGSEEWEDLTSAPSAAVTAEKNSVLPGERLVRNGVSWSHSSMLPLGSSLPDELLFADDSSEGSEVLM
Sequence of PRKCH (P24723 whole entry): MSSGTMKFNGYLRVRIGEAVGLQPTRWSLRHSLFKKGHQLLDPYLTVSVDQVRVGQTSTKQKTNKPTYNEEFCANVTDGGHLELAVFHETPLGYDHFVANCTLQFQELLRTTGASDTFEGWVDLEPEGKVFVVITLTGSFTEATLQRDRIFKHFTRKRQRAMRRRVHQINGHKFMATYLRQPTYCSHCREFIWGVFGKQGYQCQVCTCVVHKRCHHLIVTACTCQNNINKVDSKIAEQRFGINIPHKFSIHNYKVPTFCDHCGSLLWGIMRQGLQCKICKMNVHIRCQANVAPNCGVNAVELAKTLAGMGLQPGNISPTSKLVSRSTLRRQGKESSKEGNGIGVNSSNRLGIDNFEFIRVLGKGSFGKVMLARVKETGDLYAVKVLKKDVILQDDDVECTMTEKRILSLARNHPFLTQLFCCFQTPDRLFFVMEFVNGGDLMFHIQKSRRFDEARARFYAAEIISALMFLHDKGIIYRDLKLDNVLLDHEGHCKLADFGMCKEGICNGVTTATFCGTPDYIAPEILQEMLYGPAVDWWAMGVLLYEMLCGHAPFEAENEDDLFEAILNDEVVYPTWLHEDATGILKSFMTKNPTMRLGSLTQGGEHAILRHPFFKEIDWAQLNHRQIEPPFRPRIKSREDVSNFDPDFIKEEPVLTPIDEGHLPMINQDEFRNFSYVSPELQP
T4 sequence (Q9P2K8 whole entry S808G): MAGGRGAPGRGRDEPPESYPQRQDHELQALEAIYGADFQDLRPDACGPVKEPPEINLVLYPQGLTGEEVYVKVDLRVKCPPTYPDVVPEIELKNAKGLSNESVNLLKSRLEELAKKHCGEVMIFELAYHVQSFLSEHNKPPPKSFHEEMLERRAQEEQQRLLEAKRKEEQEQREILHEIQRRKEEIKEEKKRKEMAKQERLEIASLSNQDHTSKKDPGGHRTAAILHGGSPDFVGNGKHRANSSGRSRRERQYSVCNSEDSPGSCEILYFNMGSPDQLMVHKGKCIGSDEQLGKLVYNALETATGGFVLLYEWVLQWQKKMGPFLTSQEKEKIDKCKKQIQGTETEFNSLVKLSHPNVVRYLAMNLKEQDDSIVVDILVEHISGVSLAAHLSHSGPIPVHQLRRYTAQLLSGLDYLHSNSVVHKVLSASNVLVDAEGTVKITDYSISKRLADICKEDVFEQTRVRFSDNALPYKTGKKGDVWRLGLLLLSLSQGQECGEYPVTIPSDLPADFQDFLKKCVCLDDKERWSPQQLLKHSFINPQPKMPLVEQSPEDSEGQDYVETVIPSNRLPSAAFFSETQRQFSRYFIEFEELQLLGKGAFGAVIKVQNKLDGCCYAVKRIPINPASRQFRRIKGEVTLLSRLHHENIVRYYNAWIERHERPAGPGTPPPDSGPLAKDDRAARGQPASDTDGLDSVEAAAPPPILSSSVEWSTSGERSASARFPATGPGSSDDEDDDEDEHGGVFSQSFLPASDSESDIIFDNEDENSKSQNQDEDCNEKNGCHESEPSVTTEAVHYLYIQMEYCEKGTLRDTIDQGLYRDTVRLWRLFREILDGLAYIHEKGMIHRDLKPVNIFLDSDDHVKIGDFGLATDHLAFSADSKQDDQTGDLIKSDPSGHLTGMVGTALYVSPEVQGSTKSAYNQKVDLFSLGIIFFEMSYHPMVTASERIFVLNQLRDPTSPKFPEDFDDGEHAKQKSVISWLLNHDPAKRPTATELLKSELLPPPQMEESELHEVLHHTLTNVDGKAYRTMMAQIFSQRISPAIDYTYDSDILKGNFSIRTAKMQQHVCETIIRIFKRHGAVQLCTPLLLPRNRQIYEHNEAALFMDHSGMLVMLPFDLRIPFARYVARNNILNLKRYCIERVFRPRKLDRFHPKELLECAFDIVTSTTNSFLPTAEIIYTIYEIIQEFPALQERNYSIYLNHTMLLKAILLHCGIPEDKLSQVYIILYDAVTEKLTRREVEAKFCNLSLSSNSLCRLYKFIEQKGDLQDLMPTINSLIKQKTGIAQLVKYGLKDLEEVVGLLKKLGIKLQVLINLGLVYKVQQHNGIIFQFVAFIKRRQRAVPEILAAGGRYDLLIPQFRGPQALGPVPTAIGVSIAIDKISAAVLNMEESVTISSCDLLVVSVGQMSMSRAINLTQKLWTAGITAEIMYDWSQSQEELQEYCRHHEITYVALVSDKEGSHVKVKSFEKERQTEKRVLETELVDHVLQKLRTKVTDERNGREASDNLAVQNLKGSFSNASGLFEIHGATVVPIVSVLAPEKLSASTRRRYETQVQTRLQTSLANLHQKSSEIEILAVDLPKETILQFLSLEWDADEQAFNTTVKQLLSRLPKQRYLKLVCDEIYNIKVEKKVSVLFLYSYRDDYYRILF
T8 sequence (Q13163 whole entry): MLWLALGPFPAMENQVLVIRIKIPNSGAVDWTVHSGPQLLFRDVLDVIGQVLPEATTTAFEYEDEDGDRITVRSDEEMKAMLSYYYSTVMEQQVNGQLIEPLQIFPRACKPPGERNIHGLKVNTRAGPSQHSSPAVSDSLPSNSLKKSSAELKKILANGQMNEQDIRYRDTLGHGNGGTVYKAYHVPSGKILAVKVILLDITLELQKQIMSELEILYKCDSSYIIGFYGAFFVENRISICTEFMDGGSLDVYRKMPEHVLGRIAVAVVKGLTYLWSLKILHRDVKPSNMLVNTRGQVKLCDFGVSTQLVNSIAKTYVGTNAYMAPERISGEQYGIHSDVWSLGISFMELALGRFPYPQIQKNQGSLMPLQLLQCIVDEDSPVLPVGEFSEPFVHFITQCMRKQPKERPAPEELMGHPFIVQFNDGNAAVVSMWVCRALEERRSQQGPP
T6 sequence (Q92918 whole entry): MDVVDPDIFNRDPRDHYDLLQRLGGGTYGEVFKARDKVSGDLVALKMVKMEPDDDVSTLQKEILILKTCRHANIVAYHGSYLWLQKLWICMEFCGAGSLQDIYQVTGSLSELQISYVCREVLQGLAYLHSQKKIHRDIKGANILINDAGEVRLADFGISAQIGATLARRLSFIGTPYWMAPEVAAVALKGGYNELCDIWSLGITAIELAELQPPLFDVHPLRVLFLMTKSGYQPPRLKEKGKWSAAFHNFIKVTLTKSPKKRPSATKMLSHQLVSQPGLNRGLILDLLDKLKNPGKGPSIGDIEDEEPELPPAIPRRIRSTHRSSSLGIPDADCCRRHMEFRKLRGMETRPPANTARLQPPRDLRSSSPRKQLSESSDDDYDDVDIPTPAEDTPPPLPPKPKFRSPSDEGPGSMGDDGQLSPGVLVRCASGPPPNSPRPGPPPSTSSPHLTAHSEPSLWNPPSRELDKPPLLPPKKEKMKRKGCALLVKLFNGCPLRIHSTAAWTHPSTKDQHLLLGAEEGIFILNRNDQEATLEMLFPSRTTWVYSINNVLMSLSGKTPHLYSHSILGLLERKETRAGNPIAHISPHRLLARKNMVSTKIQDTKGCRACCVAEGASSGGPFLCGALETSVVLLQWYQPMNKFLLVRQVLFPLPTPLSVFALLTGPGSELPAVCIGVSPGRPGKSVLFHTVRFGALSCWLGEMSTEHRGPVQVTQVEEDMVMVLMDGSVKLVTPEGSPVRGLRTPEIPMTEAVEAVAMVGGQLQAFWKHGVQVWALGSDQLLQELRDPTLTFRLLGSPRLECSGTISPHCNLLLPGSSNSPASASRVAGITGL
T1 sequence (Q13043 whole entry): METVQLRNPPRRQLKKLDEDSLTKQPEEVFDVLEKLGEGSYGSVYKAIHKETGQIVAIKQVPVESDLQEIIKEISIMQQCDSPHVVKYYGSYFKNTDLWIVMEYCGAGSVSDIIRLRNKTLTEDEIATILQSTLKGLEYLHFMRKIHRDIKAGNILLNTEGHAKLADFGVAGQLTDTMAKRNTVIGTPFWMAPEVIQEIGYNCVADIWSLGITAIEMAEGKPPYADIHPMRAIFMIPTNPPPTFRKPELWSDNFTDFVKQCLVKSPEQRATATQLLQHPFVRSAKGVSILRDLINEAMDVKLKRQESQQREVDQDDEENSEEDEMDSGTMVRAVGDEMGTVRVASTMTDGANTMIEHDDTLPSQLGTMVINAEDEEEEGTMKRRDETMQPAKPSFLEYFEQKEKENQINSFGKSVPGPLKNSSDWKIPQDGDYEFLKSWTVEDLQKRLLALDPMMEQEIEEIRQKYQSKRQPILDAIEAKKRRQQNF

COc1cc2c(cn1)N(C)C(=O)[C@@H](NC(=O)c1nc3n(n1)[C@H](c1ccccc1)CC3)CC2 [GNE684, (S)-N-((S)-7-methoxy-1-methyl-2-oxo-2,3,4,5-tetrahydro-1H-pyrido[3,4-b]azepin-3-yl)-5-phenyl-6,7-dihydro-5H-pyrrolo[1,2-b][1,2,4]triazole-2-carboxamide]
remaining binding at 10 µM (SRPK2): 100%
remaining binding at 10 µM (MST1): 85%
remaining binding at 10 µM (TRKB): 83%
remaining binding at 10 µM [1]: 73%
remaining binding at 10 µM (PRKCH): 89%
remaining binding at 10 µM (FLT3): 87%
remaining binding at 10 µM (PIK3CA(I800L)): 96%
remaining binding at 10 µM (TNIK): 67%
remaining binding at 10 µM (MYLK): 99%
remaining binding at 10 µM (CSNK2A1): 93%
remaining binding at 10 µM (RIPK4): 100%
remaining binding at 10 µM (GCN2(Kin.Dom.2,S808G)): 100%
remaining binding at 10 µM (FGFR3(G697C)): 88%
remaining binding at 10 µM (MAK): 96%
remaining binding at 10 µM (PCTK3): 94%
remaining binding at 10 µM (MERTK): 90%
remaining binding at 10 µM (HPK1): 98%
remaining binding at 10 µM (PIK4CB): 98%
remaining binding at 10 µM (MEK5): 80%
remaining binding at 10 µM (HUNK): 94%
remaining binding at 10 µM (AKT2): 92%
